In patent US20230120597A1, “CO-AGONISTS AT GLP-1 AND GIP RECEPTORS SUITABLE FOR ORAL DELIVERY” (Novo Nordisk A/S, priority 2020, published 2023) one finds EC50, AUC/Dose and Cmax/Dose data, which are given here for three compounds.

Where two headings read alike, the source gives them in different places. Starred links: 1 amine or outer side, 2 acyl side, 3 side chain; linkers in the order of their positions; H or OH if unused. Non-standard residues stand in square brackets, D forms with d. Residues, ends and D or L forms follow the SMILES beside them. Groups on a side chain read outwards from the residue. *: point of attachment. C18 diacid = O=C(O)CCCCCCCCCCCCCCCCC(=O)*; γGlu = O=C(O)[C@H](CCC(=O)[*:2])N[*:1]; εLys = N[C@@H](CCCCN[*:1])C(=O)[*:2]; Aib = CC(C)(N)C(=O)O

Series [1] deals with T1, human GLP-1 receptor (Homo sapiens, UniProt P43220).
T1 construct: expressed in transfected cells; host or cells: BHK (parent line BHKTS13), clone BHK CRE luc2P hGLP-1R
T1 sequence (P43220 24-463): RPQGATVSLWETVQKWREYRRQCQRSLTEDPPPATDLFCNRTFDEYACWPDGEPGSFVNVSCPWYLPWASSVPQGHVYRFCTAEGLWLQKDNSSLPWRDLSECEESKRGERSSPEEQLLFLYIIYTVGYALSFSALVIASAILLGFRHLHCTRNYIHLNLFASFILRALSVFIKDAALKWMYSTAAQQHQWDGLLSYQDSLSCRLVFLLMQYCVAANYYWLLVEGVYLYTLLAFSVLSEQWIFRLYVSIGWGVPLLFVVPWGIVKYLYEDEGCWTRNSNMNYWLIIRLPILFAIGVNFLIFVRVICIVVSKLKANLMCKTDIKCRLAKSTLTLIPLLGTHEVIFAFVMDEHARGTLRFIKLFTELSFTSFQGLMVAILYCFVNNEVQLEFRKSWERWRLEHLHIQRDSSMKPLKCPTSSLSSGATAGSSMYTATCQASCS
Description: In vitro functional potency, CRE luciferase reporter gene assay, whole BHK cells expressing hGLP-1R. The series is classed as cell-based. Particulars: BHK CRE luc2P hGLP-1R cells. On the procedure: (§1) The in vitro functional potency is the measure of target receptor activation in a whole cell assay.
(§2) In vitro functional potency was determined by measuring the response of the target receptor in a reporter gene assay in individual cell lines. […] When the respective receptor is activated, it results in the production of cAMP, which in turn results in expression of the luciferase protein. When assay incubation is completed, luciferase substrate (luciferin) is added resulting in the enzymatic conversion of luciferin to oxyluciferin and producing bioluminescence. The luminescence is measured as the readout for the assay.
(§3) The cells lines used in these assays were BHK cells with BHKTS13 as a parent cell line. The cell lines were derived from a clone containing the CRE luciferase element and were established by further transfection with the respective human receptor to obtain the relevant cell line: BHK CRE luc2P hGLP-1R or BHK CRE luc2P hGIPR. The cells were cultured at 37° C. with 5% CO2 in Cell Culture Medium. They were aliquoted and stored in liquid nitrogen. The cells were kept in continuous culture and were seeded out the day before each assay.
(§4) GLP-1R Cell Culture Medium consisted of DMEM medium with 10% FBS, 500 μg/mL G418, and 300 μg/mL hygromycin. GIPR Cell Culture Medium consisted of DMEM medium with 10% FBS, 400 μg/mL G418, and 300 μg/mL hygromycin. Assay Buffer consisted of DMEM w/o phenol red, 10 mM Hepes, 1× Glutamax. 1% ovalbumin, and 0.1% Pluronic F-68 with the addition of HSA at twice the final assay concentration.
(§5) Procedure • 1) Cells were plated at 5000 cells/well and incubated overnight in the assay plate. • 2) Cells were washed once in DPBS. • 3) Stocks of the test compounds and reference compounds in concentrations ranging from […] were diluted 1:150 in Assay Buffer. Compounds were then diluted 1:10 in column 1 of a 96 deep well dilution plate and then carried across the row creating a 3.5 fold, 12 point dilution curve. • 4) Assay Buffer (50 μl aliquot) with or without HSA was added to each well in the assay plate. • 5) A 50 μl aliquot of compound or blank was transferred from the dilution plate to the assay plate containing the Assay Buffer with or without HSA. • 6) The assay plate was incubated for 3 h in a 5% CO2 incubator at 37° C. • 7) The cells were washed once with DPBS. • 8) A 100 μl aliquot of DPBS was added to each well of the assay plate. • 9) A 100 μl aliquot of steadylite plus reagent (light sensitive) was added to each well of the assay plate. • 10) Each assay plate was covered with aluminum foil to protect it from light and shaken at 250 RPM for 30 min at room temperature. • 11) Each assay plate was read in a microtiter plate reader.
(§6) The data from the microtiter plate reader was first regressed in an Excel in order to calculate the x-axis, log scale concentrations based on the individual test compound's stock concentration and the dilutions of the assay. […] The software performs a non-linear regression (log(agonist) vs response). A minimum of two replicates was measured for each sample. The reported values are averages of the replicates.

In series [2] the target is T2, human GIP receptor (Homo sapiens, UniProt P48546).
T2 construct: expressed in transfected cells; host or cells: BHK (parent line BHKTS13), clone BHK CRE luc2P hGIPR
T2 sequence (P48546 22-466): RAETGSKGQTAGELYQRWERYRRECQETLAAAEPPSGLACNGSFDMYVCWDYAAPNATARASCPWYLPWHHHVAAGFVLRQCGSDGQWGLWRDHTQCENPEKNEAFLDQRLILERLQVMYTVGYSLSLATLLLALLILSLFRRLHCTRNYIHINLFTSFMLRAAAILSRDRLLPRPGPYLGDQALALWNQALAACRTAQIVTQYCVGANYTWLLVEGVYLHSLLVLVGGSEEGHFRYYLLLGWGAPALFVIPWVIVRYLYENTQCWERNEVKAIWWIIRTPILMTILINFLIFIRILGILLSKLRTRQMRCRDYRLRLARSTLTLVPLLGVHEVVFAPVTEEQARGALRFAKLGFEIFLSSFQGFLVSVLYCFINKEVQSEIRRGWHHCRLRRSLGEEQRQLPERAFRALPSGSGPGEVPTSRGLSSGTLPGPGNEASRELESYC
Nature of the series: In vitro functional potency, CRE luciferase reporter gene assay, whole BHK cells expressing hGIPR. The note with it: BHK CRE luc2P hGIPR cells. The series is classed as cell-based. The procedure:
as §1, §2, §3, §4, §5, §6

The nature of series [3]: Pharmacokinetic study in dogs, oral dosing of tablet compositions with SNAC. It counts as in vivo, Beagle dogs. Particulars: dog, in vivo, po. The procedure: The purpose of this example is to determine the half-life and plasma exposure in vivo of the compounds of the present invention after p.o. administration to beagle dogs, i.e. the terminal half-life and concentration of test substance that reaches circulation with time. This is done in a pharmacokinetic (PK) study, where these parameters of the compound in question are determined. By terminal half-life is generally meant the period of time it takes to halve a certain plasma concentration, measured after the initial distribution phase.
The amount of SNAC in the tablet composition was 100-300 mg, the amount of magnesium stearate in the tablet composition was 7.7 mg, and the target amount of each test substance in the tablet composition was 3-4 mg.
Male beagle dogs, 1-7 years of age and weighing 9-17 kg during the study period, were included in the study. The dogs were dosed in a fasting state. The dogs were group housed in pens (12 hours light: 12 hours dark), and fed individually and restrictedly once daily with Royal Canin Medium Adult dog food (Royal Canin Products, China Branch, or Brogaarden A/S, Denmark). The dogs were used for repeated PK studies with a suitable wash-out period between successive dosing. An appropriate acclimatization period was given prior to initiation of the first PK study. All handling, dosing, and blood sampling of the animals were performed by trained and skilled staff. Before the studies, the dogs were fasted overnight and from 0 to 4 hours after dosing. The dogs were restricted to water 1 hour before dosing until 4 hours after dosing, but otherwise had ad libitum access to water during the whole period.
The compositions were administered by a single oral dosing to the dogs in groups of 6-8 dogs. […] The mouth was then closed, and 10 mL of tap water was given by syringe or gavage to facilitate swallowing of the tablet.
One blood sample was drawn before dosing, and additional samples were drawn at predefined time points after dosing for up to 240 hours, such as up to 10 hours, to adequately cover the full plasma concentration-time absorption profile of the test substance. For each blood sample time point, approximately 0.8 mL of whole blood was collected in a 1.5 mL EDTA-coated tube, which was gently turned to mix the sample with EDTA. Blood samples were collected in EDTA buffer (8 mM) and then centrifuged at 4° C. 2000 g for 10 minutes. Plasma was pipetted into Micronic tubes on dry ice, and kept at −20° C. or lower until analysis. Blood samples were taken as appropriate, for example from a venflon in the cephalic vein in the front leg for the first 2 hours and then with syringe from the jugular vein for the rest of the time points. The first few drops were allowed to drain from the venflon to avoid heparin saline from the venflon in the sample.
All blood samples were collected into test tubes containing EDTA for stabilisation and kept on ice until centrifugation. Plasma was separated from whole blood by centrifugation and the plasma was stored at −20° C. or lower until analysis.
The plasma was analysed for test substance using LC-MS (Liquid Chromatography-Mass Spectrometry) as known to the person skilled in the art. […] RP-HPLC separation was achieved using a linear gradient of 1:1 acetonitrile/methanol in 1% aqueous formic acid using either: a Phenomenex Onyx Monolithic C18 column (50×2.0 mm) and a flow rate of 0.8 mL/min at 30° C.; or an Agilent Poroshell 120 SB-C18 column (50×2.1 mm, 2.7 μm) at a flow rate of 0.4 mL/min at 60° C. The mass spectrometer was operated in either positive ionization SIM mode or positive ionization PRM mode.
For each individual animal, a plasma concentration-time profile was analysed by a non-compartmental model in Pharsight Phoenix WinNonLin ver.

In the case of `CC(C)C[C@H](NC(=O)[C@H](CC(C)C)NC(=O)[C@H](Cc1c[nH]c2ccccc12)NC(=O)[C@H](CC(N)=O)NC(=O)[C@@H](NC(=O)[C@H](Cc1ccccc1)NC(=O)[C@H](C)NC(=O)[C@H](CCC(N)=O)NC(=O)[C@H](C)NC(=O)[C@H](C)NC(=O)[C@H](CCC(N)=O)NC(=O)[C@H](CCCCNC(=O)[C@@H](N)CCCCNC(=O)[C@@H](N)CCCCNC(=O)CC[C@H](NC(=O)CCCCCCCCCCCCCCCCC(=O)O)C(=O)O)NC(=O)[C@H](CCC(=O)O)NC(=O)[C@H](CC(C)C)NC(=O)[C@H](Cc1ccc(O)cc1)NC(=O)[C@H](Cc1ccc(O)cc1)NC(=O)[C@H](CO)NC(=O)[C@H](Cc1ccc(O)cc1)NC(=O)[C@H](CC(=O)O)NC(=O)[C@H](CO)NC(=O)[C@@H](NC(=O)[C@H](Cc1ccccc1)NC(=O)[C@@H](NC(=O)CNC(=O)[C@H](CCC(=O)O)NC(=O)C(C)(C)NC(=O)[C@@H](N)Cc1ccc(O)cc1)[C@@H](C)O)[C@@H](C)O)C(C)C)C(=O)N[C@@H](C)C(=O)NCC(=O)NCC(=O)N1CCC[C@H]1C(=O)N[C@@H](CO)C(=O)N[C@@H](CO)C(=O)NCC(=O)N[C@@H](C)C(=O)N1CCC[C@H]1C(=O)N1CCC[C@H]1C(=O)N1CCC[C@H]1C(=O)N[C@@H](CO)C(N)=O` [Compound No. 4] (H-Y[Aib]EGTFTSDYSYYLEK([εLys-εLys-γGlu-C18 diacid])QAAQAFVNWLLAGGPSSGAPPPS-NH2; N-terminus assumed), the EC50 in series [1] (0% HSA, read-out: hGLP-1R, CRE Luc 0% HSA EC50) is 0.0066 nM; in series [1] (hGLP-1R, CRE Luc 1% HSA EC50, 1% HSA), 0.484 nM; in series [2] (0% HSA, read-out: hGIPR, CRE Luc 0% HSA EC50), 0.0085 nM; in series [2] (hGIPR, CRE Luc 1% HSA EC50, 1% HSA) it was 0.294 nM.

The compound `CC[C@H](C)[C@H](NC(=O)[C@H](Cc1ccccc1)NC(=O)[C@H](CCC(=O)O)NC(=O)[C@H](CCCNC(=N)N)NC(=O)[C@H](C)NC(=O)[C@H](C)NC(=O)[C@H](CCC(N)=O)NC(=O)[C@H](CCC(=O)O)NC(=O)[C@H](CCC(=O)O)NC(=O)[C@H](CC(C)C)NC(=O)[C@H](CC(C)C)NC(=O)[C@H](CCCCNC(=O)[C@@H](N)CCCCNC(=O)[C@@H](N)CCCCNC(=O)CC[C@H](NC(=O)CCCCCCCCCCCCCCCCC(=O)O)C(=O)O)NC(=O)[C@H](CO)NC(=O)[C@H](Cc1ccc(O)cc1)NC(=O)[C@H](CC(=O)O)NC(=O)[C@H](CO)NC(=O)[C@@H](NC(=O)[C@H](Cc1ccccc1)NC(=O)[C@@H](NC(=O)CNC(=O)[C@H](CCC(=O)O)NC(=O)C(C)(C)NC(=O)[C@@H](N)Cc1ccc(O)cc1)[C@@H](C)O)[C@@H](C)O)C(=O)N[C@@H](CCC(=O)O)C(=O)N[C@@H](Cc1c[nH]c2ccccc12)C(=O)N[C@@H](CC(C)C)C(=O)N[C@@H](CC(C)C)C(=O)N[C@@H](C)C(=O)NCC(=O)NCC(=O)N1CCC[C@H]1C(=O)N[C@@H](CO)C(=O)N[C@@H](CO)C(=O)NCC(=O)N[C@@H](C)C(=O)N1CCC[C@H]1C(=O)N1CCC[C@H]1C(=O)N1CCC[C@H]1C(=O)N[C@@H](CO)C(=O)O` [Compound No. 40] returned an AUC/Dose in series [3] of 27.0 kg·h/L.

In series [3], `CC[C@H](C)[C@H](NC(=O)[C@H](Cc1ccccc1)NC(=O)[C@H](CCC(=O)O)NC(=O)[C@H](CCCNC(=N)N)NC(=O)[C@H](C)NC(=O)[C@H](C)NC(=O)[C@H](CCC(N)=O)NC(=O)[C@H](CCC(=O)O)NC(=O)[C@H](CCC(=O)O)NC(=O)[C@H](CC(C)C)NC(=O)[C@H](CC(C)C)NC(=O)[C@@H](NC(=O)[C@H](CO)NC(=O)[C@H](Cc1ccc(O)cc1)NC(=O)[C@H](CC(=O)O)NC(=O)[C@H](CO)NC(=O)[C@@H](NC(=O)[C@H](Cc1ccccc1)NC(=O)[C@@H](NC(=O)CNC(=O)[C@H](CCC(=O)O)NC(=O)C(C)(C)NC(=O)[C@@H](N)Cc1ccc(O)cc1)[C@@H](C)O)[C@@H](C)O)[C@@H](C)CC)C(=O)N[C@@H](CCC(=O)O)C(=O)N[C@@H](Cc1c[nH]c2ccccc12)C(=O)N[C@@H](CC(C)C)C(=O)N[C@@H](CC(C)C)C(=O)N[C@@H](C)C(=O)NCC(=O)NCC(=O)N1CCC[C@H]1C(=O)N[C@@H](CO)C(=O)N[C@@H](CCCCNC(=O)[C@@H](N)CCCCNC(=O)[C@@H](N)CCCCNC(=O)CC[C@H](NC(=O)CCCCCCCCCCCCCCCCC(=O)O)C(=O)O)C(=O)NCC(=O)N[C@@H](C)C(=O)N1CCC[C@H]1C(=O)N1CCC[C@H]1C(=O)N1CCC[C@H]1C(=O)N[C@@H](CO)C(=O)O` [Compound No. 43] (H-Y[Aib]EGTFTSDYSILLEEQAAREFIEWLLAGGPSK([εLys-εLys-γGlu-C18 diacid])GAPPPS-OH) came in with an AUC/Dose of 21.4 kg·h/L and a Cmax/Dose of 0.22 kg/L.
